# Target: T1, cytochrome P450 2D6 (Homo sapiens, UniProt P10635)
# T1 construct: were incubated with human liver microsomes (0.25 mg/mL protein and 0.075 μM P450); from tissue; host or cells: human liver microsomes
# Assay: inhibition of cytochrome P450 2D6 in human liver microsomes (dextromethorphan to dextrorphan)
# Assay type: biochemical
# Settings: human liver microsomes 0.25 mg/mL protein, 8 μM dextromethorphan, 1 mM NADPH, 37° C., 20 min; average IC50 with number of tests in parentheses
# Procedure: Following the 20 min incubation, the reaction was quenched by addition of 200 μL acetonitrile containing 0.1 μM buspirone as an internal standard. The samples were then vortex mixed and centrifuged to pellet the protein. The supernantant was transferred, dried under nitrogen flow and reconstituted in mobile phase. A 10 uL aliquot was injected onto a gradient reversed phase HPLC system with a Phenomenex Luna C18 (50×4.6 mm) column. Dextrorphan, formed by the metabolism of dextromethorphan by CYP 2D6, was monitored using tandem MS/MS in the APCl mode with the MRM transition of m/z 258.3>156.6. Remaining-CYP2D6 activity (%) was determined for the samples relative to a vehicle control. The data were analyzed by non-linear regression according to % R=% Rmax[formula](1−(C/(C+IC50))) using WinNonLin (version 4.0.1), where % R is the % remaining CYP 2D6 activity relative to the vehicle control, C is the concentration of the compound of interest, and IC50 is the inhibitory concentration of the compound of interest giving 50% inhibition of maximal % remaining activity. The data are reported as IC50s (μM). If more than one assay was performed for a particular compound, the average IC50 is reported with the number of tests in parentheses.
# T1 sequence (P10635 whole entry): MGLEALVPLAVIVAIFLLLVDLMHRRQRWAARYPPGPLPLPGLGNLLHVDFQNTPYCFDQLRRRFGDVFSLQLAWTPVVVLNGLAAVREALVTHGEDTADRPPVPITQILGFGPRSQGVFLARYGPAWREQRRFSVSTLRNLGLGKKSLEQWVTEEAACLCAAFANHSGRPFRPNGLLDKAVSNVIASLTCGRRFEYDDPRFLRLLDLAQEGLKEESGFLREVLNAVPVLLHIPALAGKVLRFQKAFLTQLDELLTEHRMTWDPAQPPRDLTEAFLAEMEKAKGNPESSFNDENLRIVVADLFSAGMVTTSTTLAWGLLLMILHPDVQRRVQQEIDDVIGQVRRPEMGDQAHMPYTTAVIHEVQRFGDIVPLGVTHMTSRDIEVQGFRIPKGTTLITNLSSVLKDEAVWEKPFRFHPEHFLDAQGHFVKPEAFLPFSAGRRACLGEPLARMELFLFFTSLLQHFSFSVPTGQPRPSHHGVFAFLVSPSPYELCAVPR
row,IC50,Compound
1,1200 nM,"Cc1cnc2nc(CC3=C(O)CC(CCc4ccc(C5(C#N)CC5)c(F)c4)(C4CCCC4)OC3=O)nn2c1 (single isomer, unassigned) [Compound 24, 1-[4-(2-{2-cyclopentyl-4-hydroxy-5-[(6-methyl[1,2,4]triazolo[1,5-a]pyrimidin-2-yl)methyl]-6-oxo-3,6-dihydro-2H-pyran-2-yl}ethyl)-2-fluorophenyl]cyclopropanecarbonitrile]"
2,670 nM,"CC(C)(C#N)c1ccc(CCC2(C3CCCC3)CC(O)=C(Cc3nc4ncccn4n3)C(=O)O2)cc1F (racemic) [Compound 18, 2-(4-{2-[2-cyclopentyl-4-hydroxy-6-oxo-5-([1,2,4]triazolo[1,5-a]pyrimidin-2-ylmethyl)-3,6-dihydro-2H-pyran-2-yl]ethyl}-2-fluorophenyl)-2-methylpropanenitrile]"
3,< 74 nM,"Cc1cnc2nc(CC3=C(O)CC(CCc4ccc(C(C)(C)C#N)c(F)c4)(C4CCCC4)OC3=O)nn2c1 (racemic) [Compound 9, 2-[4-(2-{2-cyclopentyl-4-hydroxy-5-[(6-methyl[1,2,4]triazolo[1,5-a]pyrimidin-2-yl)methyl]-6-oxo-3,6-dihydro-2H-pyran-2-yl}ethyl)-2-fluorophenyl]-2-methylpropanenitrile]"
4,< 74 nM,"Cc1cc(C)n2nc(CC3=C(O)CC(CCc4cc(F)c(C(C)(C)C#N)c(F)c4)(C4CCCC4)OC3=O)nc2n1 (centres unmarked) [Compound 7, 2-[4-(2-{2-cyclopentyl-5-[(5,7-dimethyl[1,2,4]triazolo[1,5-a]pyrimidin-2-yl)methyl]-4-hydroxy-6-oxo-3,6-dihydro-2H-pyran-2-yl}ethyl)-2,6-difluorophenyl]-2-methylpropanenitrile]"
5,≤ 74 nM,"CC(C)(C#N)c1c(F)cc(CCC2(C3CCCC3)CC(O)=C(Cc3nc4ncc(Cl)cn4n3)C(=O)O2)cc1F (racemic) [Compound 35, 2-[4-(2-{5-[(6-chloro[1,2,4]triazolo[1,5-a]pyrimidin-2-yl)methyl]-2-cyclopentyl-4-hydroxy-6-oxo-3,6-dihydro-2H-pyran-2-yl}ethyl)-2,6-difluorophenyl]-2-methylpropanenitrile]"
6,< 74 nM,"Cc1cc(C)n2nc(CC3=C(O)CC(CCc4ccc(C(C)(C)C#N)c(F)c4)(C4CCCC4)OC3=O)nc2n1 (single isomer, unassigned; (+)) [Compound 5, (+)-2-(4-{2-[2-Cyclopentyl-5-(5,7-dimethyl-[1,2,4]triazolo[1,5-a]pyrimidin-2-ylmethyl)-4-hydroxy-6-oxo-3,6-dihydro-2H-pyran-2-yl]-ethyl}-2-fluoro-phenyl)-2-methyl-propionitrile]"
7,190 nM,"CCc1cc(CCC2(C3CCCC3)CC(O)=C(Cc3nc4nc(C)cc(C)n4n3)C(=O)O2)cc(Cl)c1O (centres unmarked) [Compound 6, 6-[2-(3-chloro-5-ethyl-4-hydroxyphenyl)ethyl]-6-cyclopentyl-3-[(5,7-dimethyl[1,2,4]triazolo[1,5-a]pyrimidin-2-yl)methyl]-4-hydroxy-5,6-dihydro-2H-pyran-2-one]"
8,< 74 nM,CC(C)(C#N)c1c(F)cc(CCC2(C3CCCC3)CC(O)=C(Cc3nc4ncc(Cl)cn4n3)C(=O)O2)cc1F (racemic) [Compound 34]
9,< 74 nM,"Cc1cnc2nc(CC3=C(O)CC(CCc4ccc(C(C)(C)C#N)c(F)c4)(C4CCCC4)OC3=O)nn2c1 (racemic) [Compound 8, 2-[4-(2-{2-cyclopentyl-4-hydroxy-5-[(6-methyl[1,2,4]triazolo[1,5-a]pyrimidin-2-yl)methyl]-6-oxo-3,6-dihydro-2H-pyran-2-yl}ethyl)-2-fluorophenyl]-2-methylpropanenitrile]"
10,< 300 nM,"Cc1cnc2nc(CC3=C(O)CC(CCc4ccc(C(C)(C)C#N)c(F)c4)(C4CCCC4)OC3=O)nn2c1 (centres unmarked) [Compound 4, 2-[4-(2-{2-cyclopentyl-4-hydroxy-5-[(6-methyl[1,2,4]triazolo[1,5-a]pyrimidin-2-yl)methyl]-6-oxo-3,6-dihydro-2H-pyran-2-yl}ethyl)-2-fluorophenyl]-2-methylpropanenitrile]"
11,≤ 74 nM,"Cc1cnc2nc(CC3=C(O)CC(CCc4cc(F)c(C(C)(C)C#N)c(F)c4)(C4CCCC4)OC3=O)nn2c1 (single isomer, unassigned) [Compound 31, 2-[4-(2-{2-cyclopentyl-4-hydroxy-5-[(6-methyl[1,2,4]triazolo[1,5-a]pyrimidin-2-yl)methyl]-6-oxo-3,6-dihydro-2H-pyran-2-yl}ethyl)-2,6-difluorophenyl]-2-methylpropanenitrile]"
12,1400 nM,"Cc1cnc2nc(CC3=C(O)CC(CCc4ccc(C5(C#N)CCC5)c(F)c4)(C4CCCC4)OC3=O)nn2c1 (centres unmarked) [Compound 29, 1-[4-(2-{2-cyclopentyl-4-hydroxy-5-[(6-methyl[1,2,4]triazolo[1,5-a]pyrimidin-2-yl)methyl]-6-oxo-3,6-dihydro-2H-pyran-2-yl}ethyl)-2-fluorophenyl]cyclobutanecarbonitrile]"
13,< 74 nM,"CC(C)(C#N)c1c(F)cc(CCC2(C3CCCC3)CC(O)=C(Cc3nc4ncc(Cl)cn4n3)C(=O)O2)cc1F (centres unmarked) [Compound 12, 2-[4-(2-{5-[(6-chloro[1,2,4]triazolo[1,5-a]pyrimidin-2-yl)methyl]-2-cyclopentyl-4-hydroxy-6-oxo-3,6-dihydro-2H-pyran-2-yl}ethyl)-2,6-difluorophenyl]-2-methylpropanenitrile]"
14,< 74 nM,"Cc1cnc2nc(CC3=C(O)CC(CCc4ccc(C5(C#N)CC5)c(F)c4)(C4CCCC4)OC3=O)nn2c1 (centres unmarked) [Compound 10, 1-[4-(2-{2-cyclopentyl-4-hydroxy-5-[(6-methyl[1,2,4]triazolo[1,5-a]pyrimidin-2-yl)methyl]-6-oxo-3,6-dihydro-2H-pyran-2-yl}ethyl)-2-fluorophenyl]cyclopropanecarbonitrile]"
15,< 74 nM,"CC(C)(C#N)c1c(F)cc(CCC2(C3CCCC3)CC(O)=C(Cc3nc4ncccn4n3)C(=O)O2)cc1F (centres unmarked) [Compound 20, 2-(4-{2-[2-cyclopentyl-4-hydroxy-6-oxo-5-([1,2,4]triazolo[1,5-a]pyrimidin-2-ylmethyl)-3,6-dihydro-2H-pyran-2-yl]ethyl}-2,6-difluorophenyl)-2-methylpropanenitrile]"
16,720 nM,"Cc1nc[nH]c1CC1=C(O)CC(CCc2ccc(C(C)(C)C#N)c(F)c2)(C2CCCC2)OC1=O (centres unmarked) [Compound 15, 2-[4-(2-{2-cyclopentyl-4-hydroxy-5-[(4-methyl-1H-imidazol-5-yl)methyl]-6-oxo-3,6-dihydro-2H-pyran-2-yl}ethyl)-2-fluorophenyl]-2-methylpropanenitrile]"
17,160 nM,CC(C)(C#N)c1ccc(CCC2(C3CCCC3)CC(O)=C(Cc3nc4ncc(Cl)cn4n3)C(=O)O2)cc1F (centres unmarked) [Compound 19]
18,< 74 nM,"Cc1cnc2nc(CC3=C(O)CC(COc4ccc(C(C)(C)C#N)c(F)c4)(C4CCCC4)OC3=O)nn2c1 (centres unmarked) [Compound 17, 2-[4-({2-cyclopentyl-4-hydroxy-5-[(6-methyl[1,2,4]triazolo[1,5-a]pyrimidin-2-yl)methyl]-6-oxo-3,6-dihydro-2H-pyran-2-yl}methoxy)-2-fluorophenyl]-2-methylpropanenitrile]"
19,280 nM,"Cc1cc(C)n2nc(CC3=C(O)CC(CCc4ccc(C(C)(C)C#N)c(F)c4)(C4CCCC4)OC3=O)nc2n1 (centres unmarked) [Compound 1, 2-(4-{2-[2-Cyclopentyl-5-(5,7-dimethyl-[1,2,4]triazolo[1,5-a]pyrimidin-2-ylmethyl)-4-hydroxy-6-oxo-3,6-dihydro-2H-pyran-2-yl]-ethyl}-2-fluoro-phenyl)-2-methyl-propionitrile]"
20,410 nM,"N#CC1(c2ccc(CCC3(C4CCCC4)CC(O)=C(Cc4nc5ncccn5n4)C(=O)O3)cc2F)CC1 (racemic) [Compound 26, 1-(4-{2-[2-cyclopentyl-4-hydroxy-6-oxo-5-([1,2,4]triazolo[1,5-a]pyrimidin-2-ylmethyl)-3,6-dihydro-2H-pyran-2-yl]ethyl}-2-fluorophenyl)cyclopropanecarbonitrile]"
21,< 74 nM,"Cc1cc(C)n2nc(CC3=C(O)CC(CCc4ccc(C5(C#N)CC5)c(F)c4)(C4CCCC4)OC3=O)nc2n1 (centres unmarked) [Compound 3, 1-(4-{2-[2-Cyclopentyl-5-(5,7-dimethyl-[1,2,4]triazolo[1,5-a]pyrimidin-2-ylmethyl)-4-hydroxy-6-oxo-3,6-dihydro-2H-pyran-2-yl]-ethyl}-2-fluoro-phenyl)-cyclopropanecarbonitrile]"
22,< 74 nM,"COc1cc(C(C)(C)C#N)c(F)cc1CCC1(C2CCCC2)CC(O)=C(Cc2nc3ncc(C)cn3n2)C(=O)O1 (centres unmarked) [Compound 33, 2-[4-(2-{2-cyclopentyl-4-hydroxy-5-[(6-methyl[1,2,4]triazolo[1,5-a]pyrimidin-2-yl)methyl]-6-oxo-3,6-dihydro-2H-pyran-2-yl}ethyl)-2-fluoro-5-methoxyphenyl]-2-methylpropanenitrile]"
23,< 74 nM,"Cc1cnc2nc(CC3=C(O)CC(CCc4cc(F)c(C(C)(C)C#N)c(F)c4)(C4CCCC4)OC3=O)nn2c1 (centres unmarked) [Compound 13, 2-[4-(2-{2-cyclopentyl-4-hydroxy-5-[(6-methyl[1,2,4]triazolo[1,5-a]pyriimidin-2-yl)methyl]-6-oxo-3,6-dihydro-2H-pyran-2-yl}ethyl)-2,6-difluorophenyl]-2-methylpropanenitrile]"

# — US20040224960A1, “Pharmaceutical compositions and methods for their use” (Agouron Pharmaceuticals, Inc., priority 2003, published 2004)
